# Assay results reported in EPA's ToxValDB 9.5 (doi:10.2903/j.efsa.2010.1653).
# Assays:
# [1] = test system: Apis mellifera; details: acute; duration: 48 hours; oral; unspecified; mortality
# [2] = test system: Bibionidae; details: chronic/long-term; duration: 28 days; development
# [3] = test system: Canidae; details: chronic; duration: 1 years; oral; Dog Other; body weight
# [4] = test system: Colinus virginianus
# [5] = test system: Coturnix japonica; details: acute; oral; mortality
# [6] = test system: Daphnia magna; details: chronic/long-term; duration: 21 days; reproduction
# [7] = test system: Oncorhynchus mykiss
# [8] = test system: Oryctolagus sp.; details: developmental; development
# [9] = test system: Rattus norvegicus
# [10] = test system: Tagia sp.; details: acute; duration: 14 days; mortality
# [11] = test system: Typhlodromus pyri; details: chronic/long-term; duration: 14 days; reproduction
# [12] = test system: Typhlodromus pyri; experiment: LR50; higher = less toxic; details: acute; duration: 7 days; mortality
# [13] = reproduction developmental, reproduction
smiles,measurement,setting,value
Cc1cc(=O)[nH]o1 [Hymexazol],LD50,[1],> 100 µg/piece
same,NOEC,[2],1.6 mg/L
same,NOAEL,[3],17 mg/kg-day
same,LC50,"[4]; acute, oral, diet, mortality",> 1470 mg/kg-day
same,NOEC,[4]; [13],86.5 mg/kg-day
same,LD50,[5],> 1080 mg/kg
same,NOEC,[6],0.8 mg/L
same,LC50,"[7]; acute, duration: 96 hours, mortality",> 100 mg/L
same,NOEC,"[7]; chronic/long-term, duration: 28 days, body weight",> 100 mg/L
same,NOAEL,[8],50 mg/kg-day
same,LD50,"[9]; acute, oral, mortality",1390 mg/kg
same,NOEL,[9]; [13],37 mg/kg-day
same,LC50,[10],282 mg/kg
same,NOEC,[11],400 g/ha
same,LR50,[12],1110 g/ha
